Data as given in ChEMBL document CHEMBL1147827, “A pyrimidine-pyrazolone nucleoside chimera with potent in vitro anti-orthopoxvirus activity” (Bioorg Med Chem Lett, 2006).

Test system: Vaccinia virus
Test: Antiviral activity against Vaccinia virus Copenhagen in HFF cells assessed as reduction in cytopathogenicity
Format: functional, organism-based
Settings: Orthopoxvirus vaccinia

CC(=O)OC[C@H]1O[C@@H](n2cc(/C=C3\C(=O)N(c4ccccc4)N=C3C)c(=O)[nH]c2=O)C[C@@H]1OC(C)=O
EC50: 32 µM
